Assay results published in patent US20240315993A1, “ANTIPARASITIC COMPOUNDS” (Intervet Inc., priority 2021, published 2024).

Test: In vitro test of rain fastness
Format: physicochemical
Conditions: 5% solution in Miglyol 840 on rabbit hide, 4 hours, then 30 minutes in water
Procedure: In addition to good absorbance, the composition according to the invention has a high resistance to water. After applying a 5% solution of Compound 453 in Miglyol 840 to rabbit hide and allowing to sit for 4 hours, the sample was soaked in water for 30 minutes.

## O=C(Nc1ncc(F)cc1F)c1cc(NC(=O)[C@H]2[C@H](c3cc(Cl)cc(Cl)c3)C2(Cl)Cl)ccc1Cl [Compound 453]
  presence of Compound 453 in the water: below the detection limit
  weight loss after soaking in water: 4%
